Laboratory results as given in patent publication EP0503079A1, “PYRIDAZINONE-SUBSTITUTED ETHYNYLPHENYL DERIVATIVE AND REMEDY FOR CIRCULATORY ORGAN DISEASE CONTAINING THE SAME AS ACTIVE INGREDIENT” (KAKEN PHARMACEUTICAL CO., LTD., priority 1990, dated 1992).

Legend:
[1] = test system: Aortae abdominalis of male Wister rats; assay: Anti-norepinephrine activity on rat abdominal aorta strip preparations (auto-Magnus apparatus); settings: tension by norepinephrine (10⁻⁷M) regarded as 100
Procedure: Aortae abdominalis of male Wister rats (8-12 weeks) were delivered and cut in spiral-shape to be strip preparations. Each test compounds was disolved in DMSO. Then, the solution was diluted with distilled water and prepared to be desired concentration. Using an auto-Magnus apparatus, as to the vasoconstriction after adding norepinephrine, contractive forces were measured under the existence of the test compounds.

platelet aggregation = assay: Inhibitory activity on platelet aggregation (turbidimetry); type: cell-based, New Zealand White male rabbits; settings: for Inhibition rate (%) ADP aggregation: 0.6 µg/mℓ ADP; for Inhibition rate (%) PAF aggregation: 5 x 10⁻⁹M PAF; for Inhibition rate (%) Collagen aggregation: 2 µg/mℓ collagen
Procedure: Blood was exsanguinated from New Zealand White male rabbits weighing from 2.5 to 3.0 kg and subjected to the test. Each test compound was dissolved in ethanol and prepared to be 1 x 10⁻⁵, 1 x 10⁻⁶ or 1 x 10⁻⁷M respectively. Each aggregation response was measured by turbidimetry. Concentration of aggregating agent was 2 µg/mℓ of collagen, 0.6 µg/mℓ of adenosine 5'-diphosphate (ADP) or 5 x 10⁻⁹M of platelet aggregating factor (PAF).
(§1) Inhibition rate was calculated by the following formula. [formula]

Slc-ddy male mice = assay: Activity on hypoxia induced in decapitation of mice (gasping time); type: in vivo; parameters: dose or concentration left out as unconfirmed; settings: gasping time after decapitation, one hour after oral administration
Procedure: In each group, 3 Slc-ddy male mice (4 weeks) were employed. Each test compound was suspended or dissolved in a 0.5 % methyl cellulose solution. After the concentration was adjusted, the dose became […], the solution was administered orally. One hour after the administration, mice were decapitated and gasping time was measured.
as §1

Slc: ddy male mice = assay: Activity on stress ulcers (restraint and water immersion); type: in vivo; settings: length of ulcer in glandular stomach; 30 mg/kg orally; restrained and immersed in water of 23°C for 7 hours
Procedure: In each group, 5 Slc: ddy male mice (6 weeks) were employed. Each test compound was kneaded with Tween-80 followed by adding a 0.5 % solution of gum arabic to prepare 30 mg/10 mℓ solution (solution containing 1.5 % Tween-80 and 0.5 % gum arabic). Then, the preparation was administered orally in a rate of 30 mg/kg. After the administration, the mice were restrained and immersed in a water tank of 23°C for 7 hours. Then, length of the ulcer in the glandular stomach was measured by a stereoscopic microscope (x 10).

Acute toxicity = type: in vivo, mice; settings: mouse, in vivo; oral administration, death rate after 7 days; read-out: LD₅₀
Procedure: In each group, 6 Slc: ddy male mice weighing 25 to 29 g (6 weeks) were employed. Each compound was administered orally thereto and a value of acute toxicity was evaluated with death rate after 7 days.

| Compound | Contractive force ([1]; compound 10⁻⁷ M) | Contractive force ([1]; compound 10⁻⁸ M) | Contractive force ([1]; compound 10⁻⁹ M) | Inhibition rate (%) ADP aggregation (platelet aggregation; compound 10⁻⁵ M) [%] | Inhibition rate (%) PAF aggregation (platelet aggregation; compound 10⁻⁵ M) [%] | Inhibition rate (%) ADP aggregation (platelet aggregation; compound 10⁻⁶ M) [%] | Inhibition rate (%) Collagen aggregation (platelet aggregation; compound 10⁻⁶ M) [%] | Inhibition rate (%) ADP aggregation (platelet aggregation; compound 10⁻⁷ M) [%] | Inhibition rate (%) Collagen aggregation (platelet aggregation; compound 10⁻⁷ M) [%] | Inhibition rate (%) (Slc-ddy male mice) | Inhibition rate (%) (Slc: ddy male mice) | LD50 at 168 h (Acute toxicity) [mg/kg] |
| --- | --- | --- | --- | --- | --- | --- | --- | --- | --- | --- | --- | --- |
| 2,6-dimethyl-3-methoxycarbonyl-5-{4-(6-oxo-1,4,5,6-tetrahydropyridazinon-3-yl)phenyl}aminocarbonyl-4-[3-{2-(4-nitro)phenyl)ethynyl]phenyl-1,4-dihydropyridine [Compound 4] | 13.2 | 71.5 | 93.2 | 91 | 64 | 58 | 92 | 22 | 24 | 13.2 |  |  |
| 2,6-dimethyl-3-methoxycarbonyl-5-{4-(6-oxo-1,4,5,6-tetrahydropyridazinon-3-yl)phenyl}aminocarbonyl-4-{3-(1-heptyn-1-yl)}phenyl-1,4-dihydropyridine [Compound 3] | 12.5 | 68.3 | 92.4 | 87 | 65 | 59 | 93 | 18 | 28 |  |  |  |
| 2,6-dimethyl-3-methoxycarbonyl-5-{4-(6-oxo-1,4,5,6-tetrahydropyridazinon-3-yl)phenyl}aminocarbonyl-4-{3-(6-morpholino-1-hexyn-1-yl)}phenyl-1,4-dihydropyridine [Compound 5] |  |  |  | 89 | 59 | 61 | 89 | 20 | 26 | 3.2 |  |  |
| 2,6-dimethyl-4-(3-ethynylphenyl)-3-methoxycarbonyl-5-{4-(4-methyl-6-oxo-1,4,5,6-tetrahydropyridazinon-3-yl)phenyl}aminocarbonyl-1,4-dihydropyridine [Compound 16] | 17.9 | 86.4 | 105.3 | 88 | 66 | 65 | 97 | 19 | 25 | 3.4 |  |  |
| 2,6-dimethyl-4-(3-ethynylphenyl)-3-methoxycarbonyl-5-{4-(5-methyl-6-oxo-1,4,5,6-tetrahydropyridazinon-3-yl)phenyl}aminocarbonyl-1,4-dihydropyridine [Compound 15] | 9.8 | 68.3 | 85.6 | 88 | 40 | 47 | 96 | 16 | 28 | 5.2 | 98.1 |  |
| 4-{3-(2-tert-butoxycarbonyl)ethynyl}phenyl-2,6-dimethyl-5-{4-(6-oxo-1,4,5,6-tetrahydropyridazinon-3-yl)phenyl}aminocarbonyl-3-methoxycarbonyl-1,4-dihydropyridine [Compound 8] |  |  |  |  |  |  |  |  |  | 12.8 | 75.4 |  |
| C#Cc1cccc(C2C(C(=O)Nc3ccc(C4=NNC(=O)CC4)cc3)=C(C)NC(N)=C2C(=O)OCC)c1 (stereo not drawn) [Compound 12, 2-amino-3-ethoxycarbonyl-4-(3-ethynylphenyl)-6-methyl-5-{4-(6-oxo-1,4,5,6-tetrahydropyridazinon-3-yl)phenyl)aminocarbonyl-1,4-dihydropyridine] | 10.3 | 69.4 | 90.2 | 96 | 72 | 81 | 96 | 35 | 33 | 30.2 | 98.7 | 1200 |
| C#Cc1ccc(OC)c(C2C(C(=O)Nc3ccc(C4=NNC(=O)CC4)cc3)=C(C)NC(C)=C2C(=O)OCC)c1 (stereo not drawn) [Compound 18, 2,6-dimethyl-4-(3-ethynyl-6-methoxyphenyl)-3-ethoxycarbonyl-5-{4-(6-oxo-1,4,5,6-tetrahydropyridazinon-3-yl)phenyl}aminocarbonyl-1,4-dihydropyridine] | 16.3 | 90.5 | 111.2 | 82 | 61 | 61 | 100 | 19 | 30 |  |  |  |
| C#Cc1cccc(C2C(C(=O)Nc3ccc(C4=NNC(=O)CC4CC)cc3)=C(C)NC(C)=C2C(=O)OC)c1 (stereo not drawn) [Compound 19, 2,6-dimethyl-4-(3-ethynylphenyl)-5-{4-(4-ethyl-6-oxo-1,4,5,6-tetrahydropyridazinon-3-yl)phenyl} aminocarbonyl-3-methoxycarbonyl-1,4-dihydropyridine] | 14.9 | 84.9 | 101.1 | 83 | 38 | 63 | 91 | 20 | 28 | 5.6 | 92.6 |  |
| C#Cc1cccc(C2C(C(=O)Nc3ccc(C4=NNC(=O)CC4)cc3)=C(C)NC(C)=C2C(=O)OCC)c1 (stereo not drawn) [Compound 20, 2,6-dimethyl-4-(3-ethynylphenyl)-3-ethoxycarbonyl-5-{4-(6-oxo-1,4,5,6-tetrahydropyridazinon-3-yl)phenyl}aminocarbonyl-1,4-dihydropyridine] |  |  |  | 93 | 70 | 68 | 95 | 20 | 23 |  |  |  |
| C#Cc1cccc(C2C(C(=O)Nc3ccc(C4=NNC(=O)CC4)cc3)=C(C)NC(C)=C2C(=O)OCCOC)c1 (stereo not drawn) [Compound 22, 2,6-dimethyl-4-(3-ethynylphenyl)-3-methoxyethoxycarbonyl-5-{4-(6-oxo-1,4,5,6-tetrahydropyridazinon-3-yl)phenyl}aminocarbonyl-1,4-dihydropyridine] |  |  |  | 86 | 48 | 55 | 100 | 14 | 29 |  |  |  |
| C#Cc1cccc(C2C(C(=O)Nc3ccc(C4=NNC(=O)CC4C)cc3)=C(C)NC(N)=C2C(=O)OCC)c1 (stereo not drawn) [Compound 23, 2-amino-4-(3-ethynylphenyl)-3-ethoxycarbonyl-6-methyl-5-{4-(6-oxo-4-methyl-1,4,5,6-tetrahydropyridazinon-3-yl)phenyl}aminocarbonyl-1,4-dihydropyridine] |  |  |  | 86 | 47 | 56 | 100 | 18 | 30 |  | 91.7 |  |
| CCOC(=O)C1=C(N)NC(C)=C(C(=O)Nc2ccc(C3=NNC(=O)CC3)cc2)C1c1cccc(C#CC(C)(C)O)c1 (stereo not drawn) [Compound 24, 2-amino-4-{3-(3-hydroxy-3-methyl)-1-butyn-1-yl}phenyl-3-ethoxycarbonyl-6-methyl-5-{4-(6-oxo-1,4,5,6-tetrahydropyridazinon-3-yl)phenyl}aminocarbonyl-1,4-dihydropyridine] | 11.1 | 72.4 | 88.8 | 92 | 60 | 70 | 90 | 27 | 29 | 24.2 |  | 1100 |
